pKi: −log10 of the molar value.
Key:
[1] = target: T1, MMP-1 (human interstitial collagenase) (Homo sapiens, UniProt P03956); assay: Biochemical Assay (Protocol A): inhibition of human collagenase, fluorimetric peptide substrate; conditions: MMP-1, pH 7.4, 37° C.
T1 construct: truncated recombinant enzyme encompassing residues 101-269
T1 sequence (P03956 101-269): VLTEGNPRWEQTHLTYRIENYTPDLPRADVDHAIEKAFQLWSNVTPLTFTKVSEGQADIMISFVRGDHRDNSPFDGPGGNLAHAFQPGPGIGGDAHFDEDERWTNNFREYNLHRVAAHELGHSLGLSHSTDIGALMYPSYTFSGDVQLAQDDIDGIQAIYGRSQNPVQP
Text: (§1) As mentioned above, although low molecular weight MMP inhibitors, including hydroxamates of general formula (A), are already known, there is a strong need for better and diversified molecules for their use in medicine, that is in particular in the control or prevention of degenerative joint diseases such as rheumatoid arthritis and osteoarthritis, or in the management of multiple sclerosis, or in the treatment of invasive tumors. […] For example, the following protocol was used to assess the biochemical activity of compounds of formula (I) against MMP-1, MMP-2, and MMP-3 (respectively, human interstitial collagenase, gelatinase A, and stromelysin-1).
(§2) Human gelatinase-A (MMP-2) was obtained as pro-enzyme (72 kDa) and was activated with 1 mM 4-aminophenylmercuric acetate for 30 min at 37° C. immediately prior to use. Human stromelysin-1 (MMP-3) was obtained as a recombinant pro-enzyme isolated either from E. coli or from baculovirus infected Sf9 insect cells and activated either by heat (1 h, 55° C.) or by 5 mg/l trypsin (30 min, 37° C.) before addition of soybean trypsin inhibitor, finally removed by centrifugation.
(§3) All enzyme assays to determine values of the enzyme-inhibitor dissociation constants were performed using the peptide substrate (7-methoxycoumarin-4-yl)Acetyl-Pro-Leu-Gly-Leu-(3-[2,4-dinitrophenyl]-L-2,3-diaminopropionyl)-Ala-Arg-NH2 (Mca-Pro-Leu-Gly-Leu-Dpa-Ala-Arg--NH2) (C. G. Knight et al., FEBS Lett. 296:263-266, 1992). The enzymes cleave at the Gly-Leu bond removing the internally quenching Dpa group. The release of the highly fluorescent peptide Mca-Pro-Leu was followed fluorimetrically setting the excitation wavelength at 326 nm (bandwidth 5 nm) and the emission at 392 nm (bandwidth 20 nm).
(§4) Continuous fluorescence assay was carried out using a Perkin Elmer LS-50 Fluorescence Spectrophotometer fitted with a thermostatted four position stirring cell changer. Inhibitors were dissolved in the assay buffer ([…] Tris/HCl pH 7.4 containing 0.15 M NaCl, 10 mM CaCl2, 0.01 mM ZnCl2 and 0.05% Brij 35) thermostatted at 37° C. The reaction was started by the addition of substrate ([…]), followed by the addition of the enzyme (e.g. 1.0 nM collagenase, 0.04 nM gelatinase, or 3.0 nM stromelysin) and the increase in fluorescence was monitored over 30 min. The run was repeated at different concentrations of inhibitors in the range 0.1-10000 nM and data at inhibitor concentration in the region if their enzyme-inhibitor dissociation constants were used for calculation.
(§5) Substrate consumption was within 5% of the initial concentration and data outside this range were discarded. The Michaelis constants (Km) for the enzyme-substrate complexes is […] or greater (C. G. Knight et al., reference above), so that the factor (1+S/Km) can be approximated to unity without appreciable error.

[2] = target: T2, MMP-2 (human gelatinase A) (Homo sapiens, UniProt P08253); assay: Biochemical Assay (Protocol A): inhibition of human gelatinase A, fluorimetric peptide substrate; conditions: MMP-2, pH 7.4, 37° C.
T2 sequence (P08253 110-660): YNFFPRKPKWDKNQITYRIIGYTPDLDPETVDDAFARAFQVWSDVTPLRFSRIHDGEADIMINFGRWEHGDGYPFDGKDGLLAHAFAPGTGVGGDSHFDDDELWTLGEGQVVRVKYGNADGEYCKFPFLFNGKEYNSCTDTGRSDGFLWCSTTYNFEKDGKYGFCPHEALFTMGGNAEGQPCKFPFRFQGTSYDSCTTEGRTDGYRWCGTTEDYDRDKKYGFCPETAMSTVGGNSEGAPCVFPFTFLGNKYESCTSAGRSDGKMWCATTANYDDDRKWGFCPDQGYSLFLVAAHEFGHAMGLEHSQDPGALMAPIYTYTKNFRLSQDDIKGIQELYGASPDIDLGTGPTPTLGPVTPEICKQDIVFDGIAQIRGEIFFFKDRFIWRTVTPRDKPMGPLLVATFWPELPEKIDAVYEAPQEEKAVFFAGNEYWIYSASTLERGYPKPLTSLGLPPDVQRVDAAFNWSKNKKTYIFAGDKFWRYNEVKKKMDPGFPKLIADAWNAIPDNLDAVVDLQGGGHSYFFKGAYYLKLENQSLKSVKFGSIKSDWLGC
Text: as §1, §2, §3, §4, §5

[3] = target: T3, MMP-3 (human stromelysin-1) (Homo sapiens, UniProt P08254); assay: Biochemical Assay (Protocol A): inhibition of human stromelysin-1, fluorimetric peptide substrate; conditions: MMP-3, pH 7.4, 37° C.
T3 construct: host or cells: E. coli or baculovirus-infected Sf9 insect cells
Text: as §1, §2, §3, §4, §5

[4] = Pharmacokinetic Assay (Protocol C): plasma levels after i.v. and oral administration to rats; format: in vivo, rat (male Sprague-Dawley); conditions: 15 mg/kg
Description: Male rats (Sprague-Dawley; body weight about 250-300 g) were acclimatized for about one week before the start of the study. […] Before treatment, rats were overnight fasted. For each compound to be assessed, three rats were treated intravenously (injection in the tail vein as a bolus) with a single dose of 15 mg/kg (as free base or free acid if needed) body weight. Other three rats were treated orally (single bolus dose by gastric gavage) with 15 mg/kg of the same compound. In same cases, according to the detection limit of each particular compound, and its availability in stock, these standard doses were modified as needed.
Blood samples were collected into syringes especially prepared for use with the cannulated animals via the SCV cannula. Under standard conditions, blood samples (0.2 mL) were transferred into heparinized tubes at the following times: 0 (pre-dose), 2, 4, 8, 16, 30, 45, 60, 90 min, 2, 4, 6, 8 and 24 h after iv administration; 0 (pre-dose), 5, 10, 30, 45, 60, 90 min, 2, 4, 6, 8, and 24 h after oral administration. Plasma was obtained immediately by centrifugation (about 10,000 rpm for 3 min) and stored at -80° C. till analysis. Plasma samples were assayed for parent drug concentrations using an appropriate analytical method. Under standard conditions, liquid chromatography--tandem mass spectrometry (LC/MS-MS) was used.
Non-compartmental pharmacokinetic calculations were performed with the aid of Pharm-NCA package (SIMED, France). Maximum plasma concentration, Cmax, and the corresponding time, tmax, were read as the coordinates of the highest raw-data point for individual plasma profiles. Terminal phase was evaluated by graphic judgement by eye; terminal rate constant, was calculated as the slope of the terminal linear portion of natural log-transformed plasma concentrations vs. time curve, obtained using linear regression. Terminal half-life, t1/2,z, was calculated as ln(2)/lz. The area under the plasma concentration-time curve was estimated by the linear trapezoidal rule up to the last measured concentration (AUC(0-tz)) and extrapolated to infinity assuming monoexponential decay, using the formula AUC=AUC(0-tz)+C(tz)/lz, where C(tz) is the measured concentration of the last point with detectable concentration. Following iv dosing, systemic clearance was obtained using the formula Cl=Dose/AUC. According to Protocol C, the pharmacokinetic in rats of some representative compounds within the present invention was evaluated. Significant pharmacokinetic data obtained in rats at a 15 mg/kg dose were as follows: […]

[5] = test system: Human DU145 Prostatic Carcinoma cells; assay: Antitumor Efficacy Assay (Protocol D): DU145 tumor growth inhibition in Balb nu/nu mice; format: in vivo, human tumor in Balb nu/nu mice; conditions: 100 mg/kg b.i.d., i.p., day +1 to day +20; p<0.01, Dunnett method
Text: The novel compounds of formula (I) can be used in a method of treatment of the human or animal body by therapy. The condition of a human or animal patient may thus be improved. In particular, compounds the present invention can be used to limit the local growth of established tumors, and to limit growth of secondary metastases. The following protocol was used to evaluate the antitumoral efficacy in vivo of the compounds of the present invention:
Human DU145 Prostatic Carcinoma cells (2×10^6) were injected subcutaneously at day 0 in Balb nu/nu mice. Treatment with inhibitor (i.p. injection) started at day +1 and terminated at day +20. Animal were sacrificed at day +21, and the tumors exised and weighted. Percent tumor growth inhibition vs. control mice (% TGI) was calculated as follows:
% TGI=100-(Mean Tumor Weight in treated group)/(Mean Tumor Weight in […]

T3 sequence (P08254 100-477): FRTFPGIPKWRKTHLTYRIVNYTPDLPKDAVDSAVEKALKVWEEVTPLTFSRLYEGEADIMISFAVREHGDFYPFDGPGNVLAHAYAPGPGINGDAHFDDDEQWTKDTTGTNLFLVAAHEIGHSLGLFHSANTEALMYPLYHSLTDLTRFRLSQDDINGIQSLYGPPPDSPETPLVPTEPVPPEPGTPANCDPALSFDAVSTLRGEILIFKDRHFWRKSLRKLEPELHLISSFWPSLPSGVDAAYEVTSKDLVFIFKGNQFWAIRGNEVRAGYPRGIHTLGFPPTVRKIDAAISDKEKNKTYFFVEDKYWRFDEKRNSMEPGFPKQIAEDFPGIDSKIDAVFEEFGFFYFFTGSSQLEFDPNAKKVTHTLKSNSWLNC

pKi [1]: 8.82
pKi [2]: 8.49
pKi [3]: 7.64
AUC iv ([4]; iv): 1.35 mg·min/mL
half-life ([4]; rat, plasma, terminal half-life, read-out: t1/2,z (converted)): 138 min
clearance ([4]; rat, plasma, iv): 11 mL/min/kg
AUC ([4]; rat, plasma, oral): 1330 ng·h/mL
SMILES: CNC(=O)[C@@H](NC(=O)[C@H](CC(C)C)[C@](O)(COC(=O)NC1CCCCC1)C(=O)NO)C(C)(C)C [Example 16, [(2R,3S)-3-(N-Cyclohexylaminocarbonyl)oxymethyl-3-hydroxy-4-hydroxyamino-2-isobutylsuccinyl]-L-tert-leucine-N-methylamide]
plasma clearance compared with literature hydroxamic acid MMP inhibitors ([4]; to our best knowledge): inferior to that reported for any hydroxamic acid MMP inhibitor disclosed in the literature
TGI (percent tumor growth inhibition vs. control) [5]: 83%
